# Measurements as given in patent US20240122938A1, “METHODS AND COMPOSITIONS FOR TREATING UVEAL MELANOMA” (INSERM (INSTITUT NATIONAL DE LA SANTÉ ET DE LA RECHERCHE …, priority 2019, published 2024).
# Experiments:
# [1] = tested on: Mel270 xenografts; assay: Subcutaneous tumor xenograft; assay type: in vivo, athymic nude mice; details: established Mel270 xenografts; 50 mg/kg intraperitoneal
# Experimental: (§1) FIG. 2. Effect of ABT-263 on tumor growth in vivo effects. (A) Primary Mel270 and (B) metastatic OMM1 uveal melanoma cells were subcutaneously engrafted into athymic nude mice. Once the tumours reached 100 mm3, mice were treated daily with ABT-263. The arrow indicates the start of the treatment. The growth tumor curves were determined by measuring the tumor volume using the equation V=(L Å˜W2)/2. […] (C-D) Sub-cutaneous tumor weight from control (Ct) and ABT-263-treated mice is shown. Animal experiments were performed in accordance with French law and approved by a local institutional ethical committee. The animals were maintained in a temperature-controlled facility (22° C.) on a 12-h light/dark cycle and provided free access to food (standard laboratory chow diet from UAR, Epinay-S/Orge, France). Human Mel270 uvealmelanoma cells were subcutaneously inoculated into 8-week-old female, immune-deficient, athymic, nude FOXN1nu mice (Harlan Laboratory). When the tumors became palpable (0.1-0.2 cm3), the mice received an intraperitoneal injection of ABT-263 (50 mg/kg), dissolved in 10% DMSO 6 times per week. Control mice were injected with DMSO alone. The growth tumor curves were determined after measuring the tumor volume using the equation V=(L×W2)/2. At the end of the experiment, the mice were euthanized by cervical dislocation.
# [2] = tested on: metastatic OMM1 xenografts; assay: Subcutaneous tumor xenograft; assay type: in vivo, athymic nude mice
# Experimental: as §1
# [3] = tested on: ATF4 and CHOP in 92.1 cells; assay: Western blot of ER stress molecules; assay type: cell-based, human
# Experimental: Western blotting was performed as previously described 25,26. Briefly, cell lysates (30 μg) were separated using SDS-PAGE, transferred onto a PVDF membrane and subsequently exposed to the appropriate antibodies, anti-BCL2 (ms-123-PO) was from neomarker, anti-caspase 3 (#610323) was from BD, anti-BAX (#8429) was from sigma, anti-PARP (#9542), anti-BCL-XL (#2762), anti-caspase 9 (#9502) and anti-PUMA (#4976) were from Cell Signaling Technology Inc, anti-MCL1 (#sc-819), anti-NOXA (#56169), and anti-HSP90 (#sc-13119) were from Santa Cruz biotechnology. The proteins were visualized using the ECL system (Amersham). The western blots shown are representative of at least 3 independent experiments.
smiles,measurement,setting,value
"CC1(C)CCC(c2ccc(Cl)cc2)=C(CN2CCN(c3ccc(C(=O)NS(=O)(=O)c4ccc(N[C@H](CCN5CCOCC5)CSc5ccccc5)c(S(=O)(=O)C(F)(F)F)c4)cc3)CC2)C1 [ABT-263, 4-[4-[[2-(4-chlorophenyl)-5,5-dimethyl-1-cyclohexen-1-yl]methyl]-1-piperazinyl]-N-[[4-[[(1R)-3-(4-morpholinyl)-1-[(phenylthio)methyl]propyl]amino]-3-[(trifluoromethyl)sulfonyl]phenyl]sulfonyl]-benzamide]",tumor growth,[1],partially effective
same,excised tumor weight versus control group,[2]; end of experiment,weighed significantly less
same,tumor growth,"[2]; metastatic OMM1 xenografts, in some mice total tumor disappearance",marked tumor regression
same,ATF4 and CHOP level,[3],enhanced
